Consider one molecule from PMC9629493, “Crystal structure of DNA polymerase I from Thermus phage G20c” (Acta Crystallographica. Section D, Structural Biology, 2022).

For assay [1], the target named is T1, ExnV1 (uncultured virus, UniProt Z9YD31SC24).
T1 construct: full 314-residue 3'-5' exonuclease domain protein, N-terminal His6 tag (pJOE5751.1, pLEI447.1), E. coli JM109, about 36 kDa, no oligomerization
Briefly: differential scanning fluorimetry. It counts as binding. Conditions: with MgCl2. Background: Differential scanning fluorimetry follows unfolding on heating by fluorescence.

The target in assay [2] is T1, ExnV1. The assay is described as follows: X-ray crystal structure, […] A. It counts as binding. The settings on record: TMP and MgCl2 added before concentration; 5 mM TMP, 10 mM MgCl2 in cryo-solution; 100 mM Bicine pH 9.3; exonuclease active site.

With `Cc1cn([C@H]2C[C@H](O)[C@@H](COP(=O)(O)O)O2)c(=O)[nH]c1=O` [thymidine monophosphate], the thermal stabilization result in assay [1] is “Differential scanning fluorimetry showed that ExnV1 was stabilized by thymidine monophosphate (TMP) and MgCl2”. In addition, in assay [2], the “X-ray crystal structure, 2.19 A” value was “the second O atom of the phosphate group of the substrate nucleotide”.
